From the Bradley open melting point set (2014)

Compound	melting point
CCOCCOCCOCC [1-Ethoxy-2-(2-ethoxyethoxy)ethane]	-44 °C
Cc1cc(C2(c3cc(C)c(O)c(CN(CC(=O)O)CC(=O)O)c3)OS(=O)(=O)c3ccccc32)cc(CN(CC(=O)O)CC(=O)O)c1O	210 °C
Ic1ccc(I)cc1 [1,4-diiodobenzene]	131 °C
CCC(C)(C)c1ccc(OCC(=O)O)c(C(C)(C)CC)c1 [2,4-di(tert-pentyl)phenoxyacetic acid]	126 °C
CCCOC1CCC2C3CC=C4CC5(CCC4(C)C3CCC12C)OCCO5 (centres undefined)	209 °C
C[C@@H]1O[C@@H](O[C@H]2C[C@@H](O)[C@]3(CO)[C@H]4[C@H](O)C[C@]5(C)[C@@H](C6=CC(=O)OC6)CC[C@]5(O)[C@@H]4CC[C@]3(O)C2)[C@H](O)[C@H](O)[C@H]1O [Ouabain]	200 °C
O=C(O)c1c(Cl)cccc1Cl [2,6-Dichlorobenzoic acid]	144 °C
CN(C)c1ccccc1 [n,n-dimethylaniline]	3 °C
CCCCCBr [1-bromopentane]	-95 °C
CN1[C@@H]2CC[C@H]1C[C@@H](O)C2 [tropine]	63 °C
COc1ccc(OC)c(C(C)=O)c1 [2,5-dimethoxyacetophenone]	20 °C
OCCCCC(O)CO (centres undefined) [1,2,6-hexanetriol]	-20 °C
Nc1ccc(O)c([N+](=O)[O-])c1 [4-amino-2-nitrophenol]	129 °C
COc1ccc(C#N)c(Cl)c1OC [2-chloro-3,4-dimethoxybenzonitrile]	102 °C
CC(=O)C(C)C [3-methyl-2-butanone]	-92 °C
CC(=O)c1cccc(C(C)=O)c1 [1,3-diacetylbenzene]	36 °C
CCCCI [1-iodobutane]	-103 °C
C#CC1(O)CCCCC1 [1-ethynyl-1-cyclohexanol]	33 °C
CCOc1ccc(N)cc1 [4-Ethoxyaniline]	3 °C
OCc1c(F)c(F)c(F)c(F)c1F [2,3,4,5,6-Pentafluorobenzyl Alcohol]	37.5 °C
OCCCl [2-chloroethanol]	-63 °C
Clc1cc(Cl)c(I)cc1Cl [1,2,4-trichloro-5-iodobenzene]	104 °C
COc1cc(C(C)=O)cc(OC)c1O [3',5'-dimethoxy-4'-hydroxyacetophenone]	119 °C
COc1cccc(OC)c1OC [1,2,3-trimethoxybenzene]	45 °C
C1CC[C@H]2CCCC[C@@H]2C1 [trans-decahydronaphthalene]	-32 °C
O=[N+]([O-])/C=C/c1ccc(Cl)c(Cl)c1 [3,4-dichloro-beta-nitrostyrene]	93 °C

Compound	melting point
CC1=C(C(=O)OCc2ccccc2)C(c2ccc3c(c2)OCO3)NC(=O)N1 (centres undefined)	159 °C
NC(=O)c1c(F)c(F)c(F)c(F)c1F [2,3,4,5,6-pentafluorobenzamide]	148 °C
Sc1ccc(Br)cc1 [4-bromothiophenol]	75 °C
CCc1ccccc1Br [1-bromo-2-ethylbenzene]	-68 °C
CCC1(O)CCC(c2ccccc2)c2ccccc21 (centres undefined) [1-ethyl-4-phenyl-1,2,3,4-tetrahydronaphthalen-1-ol]	112 °C
C#CCCCCCCCCCC [1-dodecyne]	-19 °C
CC(=O)Oc1cccc(C(=O)O)c1 [m-acetoxy_benzoic_acid]	133 °C
O=C1C=CCCC1 [2-cyclohexene-1-one]	-53 °C
CCCCS [1-butanethiol]	-116 °C
O=Cc1cc(Br)cc(Br)c1 [3,5-dibromobenzaldehyde]	91 °C
CCCN [1-propylamine]	-83 °C
O=[N+]([O-])c1ccc(/N=N/c2c(O)ccc3ccccc23)cc1 [1-[(E)-(4-Nitrophenyl)diazenyl]-2-naphthol]	250 °C
Cc1ccc(Cl)c([N+](=O)[O-])c1 [4-chloro-3-nitrotoluene]	7 °C
Cc1cccc(C)c1O [2,6-dimethylphenol]	49 °C
O=C(c1ccccc1)c1ccccn1 [2-benzoylpyridine]	43 °C
CCC(C(=O)NC(=O)NC(C)=O)c1ccccc1 (centres undefined) [1-Acetyl-3-(2-phenylbutyryl)urea]	100 °C
O=C(Cc1ccccc1)Cc1ccccc1 [1,3-diphenylacetone]	34 °C
CSc1cccc(B(O)O)c1 [3-(methylthio)benzeneboronic acid]	160 °C
ClC(Cl)c1ccccc1 [benzal chloride]	-16 °C
O=C(C=Cc1ccc([N+](=O)[O-])cc1)c1ccccc1 [2-Propen-1-one, 3- (4-nitrophenyl)-1-phenyl-]	161 °C
O=c1c(O)c(-c2ccccc2O)oc2ccccc12 [2',3-dihydroxyflavone]	203 °C
BrCCCCBr [1,4-dibromobutane]	-20 °C
O=C(Cl)C(Cl)(Cl)Cl [Trichloroacetyl chloride]	-146 °C
Nc1ccc2c(c1)C(=O)c1ccccc1C2=O [2-Amino-9,10-anthraquinone]	295 °C
CCOC(=O)/C(=N/Nc1ccc(Cl)cc1)C(=O)C(F)(F)F	76 °C
COc1cc(OC)cc(OC)c1 [1,3,5-trimethoxybenzene]	53 °C

Results, then the compound that gave them:

melting point	Compound
185 °C	O=C(O)c1ccc(F)cc1 [4-fluorobenzoic acid]
82 °C	CC(=O)OC[C@H]1O[C@@H](OC(C)=O)[C@H](OC(C)=O)[C@@H]1OC(C)=O (stereo in doubt) [beta-D-ribofuranose 1,2,3,5-tetraacetate]
154 °C	O=c1cc(CO)occ1O [kojic acid]
148 °C	O=C(CCCN1CCC(O)(c2ccc(Cl)cc2)CC1)c1ccc(F)cc1 [haloperidol]
235 °C	NC(=O)C[C@H](N)C(=O)O [L-Asparagine]
3.5 °C	O=C(O)C1CCCC1 [cyclopentanecarboxylic acid]
115 °C	CC(=O)Nc1ccccc1 [N-Phenylacetamide]
156 °C	CC(C)(c1ccc(O)cc1)c1ccc(O)cc1 [bisphenol a]
173 °C	COc1cc(/C=C/C(=O)CC(=O)/C=C/c2ccc(O)c(OC)c2)ccc1O [curcumin]
103 °C	COC(=O)C1(C)C(C(C)=O)=Nc2ccccc21 (centres undefined) [methyl 2-acetyl-3-methyl-3H-indole-3-carboxylate]
250 °C	Cc1ccc(B(O)O)cc1[N+](=O)[O-] [4-methyl-3-nitrobenzeneboronic acid]
202 °C	Oc1ccc(Cl)cc1-c1ccno1 [4-chloro-2-(5-isoxazolyl)phenol]
-34 °C	CCCCB(CCCC)CCCC [tri-n-butylborane]
130 °C	CC(=O)[C@H]1CC[C@H]2[C@@H]3CCC4=CC(=O)CC[C@]4(C)[C@H]3CC[C@]12C [Progesterone]
160 °C	COc1ccc(C=O)cc1B(O)O [5-formyl-2-methoxybenzeneboronic acid]
139 °C	Cc1ccc(S(N)(=O)=O)cc1 [p-toluenesulfonamide]
71 °C	Clc1ccc2[nH]ccc2c1 [5-chloroindole]
73 °C	CC(C)(C)/[N+]([O-])=C/c1ccccc1 [N-tert-butyl-alpha-phenylnitrone]
3 °C	CC(=O)OCC(COC(C)=O)OC(C)=O [glycerol triacetate]
130 °C	N#Cc1ccc2cc[nH]c2c1 [indole-6-carbonitrile]
149 °C	Cc1c(CN2CCOC(c3ccccc3)C2C)c(=O)n(-c2ccccc2)n1C (centres undefined) [morazone]
47 °C	O=Cc1ccc(CO)cc1 [p-hydroxymethyl_benzaldehyde]
-5 °C	C=Cc1cccc([N+](=O)[O-])c1 [m-nitrostyrene]
43 °C	c1ccc([SiH](c2ccccc2)c2ccccc2)cc1 [triphenylsilane]

melting point	Compound
71 °C	O=S(c1ccccc1)c1ccccc1 [diphenyl sulfoxide]
172 °C	Oc1ccc(O)cc1 [hydroquinone]
24 °C	CCCCCCCCCCCCCC=O [tetradecyl_aldehyde]
115 °C	c1ccc2c(c1)-c1ccccc1-2 [biphenylene]
103 °C	CC(=O)OCC(CCn1cnc2cnc(N)nc21)COC(C)=O [Famciclovir]
156 °C	CCOC(=O)Nc1ccc2c(c1)N(C(=O)CCN1CCOCC1)c1ccccc1S2 [Moricizine]
289 °C	OB(O)c1cccc2c1oc1ccccc12 [dibenzofuran-4-boronic acid]
-120 °C	CCC(C)CCC(C)O (centres undefined) [5-methyl-2-heptanol]
115 °C	Cc1cc(O)cc(C)c1Cl [4-chloro-3,5-dimethylphenol]
31.5 °C	O=C(O)C1CCCCC1 [cyclohexanecarboxylic acid]
154 °C	O/N=C(\c1ccccc1)C(O)c1ccccc1 (centres undefined) [(2E)-2-(Hydroxyimino)-1,2-diphenylethanol]
149 °C	Cc1ccc(F)cc1B(O)O [5-fluoro-2-methylbenzeneboronic acid]
-183 °C	CC [ethane]
165 °C	CN(C)[C@@H]1C(O)=C(C(N)=O)C(=O)[C@@]2(O)C(O)=C3C(=O)c4c(O)cccc4[C@@](C)(O)[C@H]3C[C@@H]12 [Tetracycline]
119 °C	Nc1cc(Cl)ccc1[N+](=O)[O-] [5-Chlor-2-nitroanilin]
43 °C	Oc1cccc(I)c1 [m-iodophenol]
121 °C	N#Cc1cc(Br)ccc1I [5-bromo-2-iodobenzonitrile]
124 °C	CCOC(=O)/C(C#N)=C\c1ccc(-c2ccc(C)cc2)o1 [Ethyl (2Z)-2-cyano-3-[5-(4-methylphenyl)-2-furyl]acrylate]
153 °C	NS(=O)(=O)c1ccccc1 [benzenesulfonamide]
95 °C	O=C(C(=O)c1ccccc1)c1ccccc1 [benzil]
144 °C	C#C[C@]1(O)CC[C@H]2[C@@H]3CCc4cc(O)ccc4[C@H]3CC[C@@]21C [17alpha-ethynylestradiol]
136 °C	CCC1(c2ccccc2)NC(=O)N(C)C1=O (centres undefined) [mephenytoin]
198 °C	OC[C@H]1O[C@@H](Oc2ccc(O)cc2)[C@H](O)[C@@H](O)[C@@H]1O [arbutin]
